Laboratory results: patent US20250000907A1, “ENGINEERED IMMUNE CELLS WITH REDUCED SIRT6 EXPRESSION” (H. LEE MOFFITT CANCER CENTER AND RESEARCH INSTITUTE, INC., priority 2021, published 2025)

Key:
activated CD3+ T cells [1] = experiment: Western blot analysis of activated T cells; assay type: cell-based, mouse; conditions: activated T cells, FIG. 8D
Method: Whole cell lysates were prepared using lysis buffer (Pierce RIPA buffer, Thermo Fisher Scientific) supplemented with Complete™ protease inhibitor cocktail and PhosSTOP phosphatase inhibitor cocktail (Roche Applied Science).
Cell lysates (20 μg) or IP samples were loaded onto 10% SDS-PAGE and separated by electrophoresis followed by semi-dry transfer into polyvinylidene fluoride membranes (Immun-Blot® PVDF membrane, Bio-Rad) using Trans-Blot Turbo transfer system (Bio-Rad). After transfer, the membranes were blocked at room temperature with Tris-buffered saline (TBS) containing 0.05% Tween-20 (TBST) and 5% (w/v) non-fat dry milk for 1 hour and then incubated overnight at 4° C. with a specific primary antibody (indicated below). The membranes were washed three times with TBST and then incubated for 1 hour with horseradish peroxidase (HRP)-conjugated goat […] IgG H&L (Abcam, #ab97051, 1:3,000) for regular western blotting analysis, or HRP-conjugated mouse anti-rabbit IgG light-chain specific (Cell Signaling, #93702, 1:1,000) for IP samples. After washing 3 times with TBST, bound antibodies were detected by chemiluminescence using the Pierce™ ECL Western Blotting Substrate and the Super Signal West Femto Maximum Sensitivity Substrate kits (Thermo Fisher Scientific). Image acquisition was performed with the Amersham imager 600 system (GE Healthcare Bio-Sciences).
Immunoblotting was performed using primary antibodies against: Sirt6, H3K9, acetylated-H3K9 and c-Myc (#9402, 1:1,000) from Cell signaling, LDH (#ab52488, 1:5,000), PFKP (#ab204131, 1:2,000), HK1 (#ab150423, 1:1,000), HIF-1α and beta-Actin from Abcam

activated CD3+ T cells [2] = experiment: RT-PCR mRNA levels in activated T cells; assay type: cell-based, mouse
Excerpt: Total RNA was extracted using the RNeasy Mini Kit (Qiagen; cat. #74106) and reverse transcribed using iScript™ (Biorad). cDNAs were amplified using the “SsoAdvanced™ Universal SYBR® Green Supermix” kit (Biorad) in the CFX Connect™ Real-Time System (Biorad). Sense and antisense primers used were for mouse Sirt6, GLUT1, HK, PFK, LDH, GLS and ASCT2 (primers designed by Biorad and provided as a mixture, PrimePCR™ SYBR® Green Assay).

[3] = system: human TILs from NSCLC patient tumor samples; experiment: Seahorse ECAR of human NSCLC TILs; assay type: cell-based; conditions: TILs from 6 NSCLC patients, OSS vs. DMSO
Method: Human tumor infiltrating lymphocytes (hTILs) samples isolated from tumor biopsies of patients with non-small cell lung cancer (NSCLC) were generously provided by Moffitt Cancer Center. All human samples remained totally de-identified and no Institutional Review Board (IRB) approval was needed.
(§1) hTILs were maintained in RPMI 1640 Medium, supplemented with 10% human AB serum (Valley Biomedical, Inc.), 1 mM Hepes (Sigma-Aldrich), 1% P/S (Thomas Scientific Inc), 50 μg/ml Gentamicin (ThermoFisher Scientific), 50μM β-mercaptoethanol (ThermoFisher Scientific) and 6000 U/ml of recombinant human IL-2 (Peprotech). For metabolic and functional assays, hTILs were cultured in completed RPMI medium, IL-2 free, on plate-bound anti-CD3 antibody (5 μg/ml; OKT-3, BioXCell) in the presence of vehicle or OSS (Selleck Chemicals) at the indicated concentrations.
Extracellular acidification rate (ECAR) and oxygen consumption rate (OCR) were measured using the Seahorse XF analyzer (Agilent technologies). […] For GST, ECAR and OCR were measured under basal conditions and in response to 10 mM glucose, 1 μM oligomycin and 50 mM 2-DG successively to calculate basal glycolytic rate, glycolytic capacity (in response to oligomycin), and glycolytic reserve (glycolytic capacity-basal rate). […] Results were normalized to total protein quantified using Pierce™ BCA Protein Assay Kit (Thermo Fisher Scientific).

[4] = system: human TILs from NSCLC patient tumor samples; experiment: IFN-γ ELISPOT assay of human NSCLC TILs; assay type: cell-based; conditions: TILs from 6 NSCLC patients, OSS vs. DMSO
Method: as §1
(§2) The number of IFN-γ producing cells was evaluated in an ELISPOT assay. Briefly, mouse TILs were plated at 1×10^5 cells and co-cultured with 1×10^3 irradiated B16F10 tumor cells (50 Gray) in the presence of the indicated concentrations of OSS, in a 96-well nitrocellulose flat-bottomed plate (ELISPOT plate, Millipore) pre-coated with an anti-mouse IFN-γ antibody (AN-18, Mabtech, Inc.) and incubated for 48 hr at 37° C. […] After washing steps and successive biotinylated anti-IFN-γ antibody (R4-6A2, Mabtech, Inc.) and Streptavidin-HRP (BD Bioscience) labeling, spots were detected using AEC Substrate Kit (BD Biosciences) and counted using an AID ELISPOT Reader System (Autoimmun Diagnostika GmbH).

[5] = system: patient-derived human NSCLC tumor cells; experiment: LDH cytotoxic assay of human NSCLC TILs co-cultured with autologous tumor cells; assay type: cell-based; conditions: ex vivo expanded autologous TILs co-cultured with patient-derived NSCLC tumor cells
Method: Evaluation of functional cytotoxic activity was performed using Pierce™ LDH Cytotoxicity Assay Kit (Thermo Fisher Scientific) according to the manufacturer's protocol. B16F10 cells or human NSCLC autologous tumor cells were used as target cells. Mouse CD8+ enriched T cells from gp100-stimulated Pmel splenocytes or human NSCLC TILs were used as effector cells. Target tumor cells were co-cultured with effector cells in 96-well round-bottom microplates at the indicated effector:target ratios with and without Sirt6 inhibitor. After 6 hr, the percentage of specific LDH release was calculated according to the following formula: % cell lysis=(experimental value−effector cells spontaneous release−target cells spontaneous release)×100/(target cells maximum release−target cells spontaneous release), where “experimental” corresponds to the experimental signal value, “effector spontaneous” to spontaneous release of LDH from effector cells alone, “target spontaneous” to spontaneous release of LDH from target cells alone and “maximum release” to the maximum release of LDH from target cells in medium containing 1% Triton X-100.

[6] = system: stimulated CD8+ T cells from WT vs. Sirt2−/− Pmel mice; experiment: Seahorse ECAR of stimulated CD8+ T cells from WT vs. Sirt2−/− Pmel mice; assay type: cell-based, mouse; conditions: FIG. 3B
Method: (§3) FIG. 3: Sirtuins in the immune system. A, WB of Sirt1-3,5-7 expression in activated CD3+ T cells from WT vs. Sirt2−/− mice. ECAR measured by Seahorse analyzer (B) and IFN-γ ELISPOT assay (C) in stimulated CD8+ T cells from WT vs. Sirt2−/− Pmel mice treated with vehicle (Ctl), or Sirt6 inhibitor (Sirt6i). *P<0.05, **P<0.01, ****P<0.0001.
Extracellular acidification rate (ECAR) and oxygen consumption rate (OCR) were measured using the Seahorse XF analyzer (Agilent technologies). Glycolysis Stress Test (GST) and mitochondrial stress test (MST) were purchased from Agilent technologies and performed according to the kit manufacturer's instructions. […] For GST, ECAR and OCR were measured under basal conditions and in response to 10 mM glucose, 1 μM oligomycin and 50 mM 2-DG successively to calculate basal glycolytic rate, glycolytic capacity (in response to oligomycin), and glycolytic reserve (glycolytic capacity-basal rate). For MST, OCR and ECAR were measured under basal conditions and in response to sequential injections of 1 μM oligomycin, 1 μM FCCP (Carbonyl cyanide 4-trifluoromethoxyphenylhydrazone) and 0.5 μM rotenone/antimycin A to calculate basal respiration rates (baseline OCR-rotenone/antimycin A OCR), maximal respiration (FCCP OCR-rotenone/antimycin A OCR), and oxidative reserve (maximum respiration rate-basal respiration rate). […]

[7] = system: stimulated CD8+ T cells from WT vs. Sirt2−/− Pmel mice; experiment: IFN-γ ELISPOT assay of stimulated CD8+ T cells from WT vs. Sirt2−/− Pmel mice; assay type: cell-based, mouse; conditions: FIG. 3C
Method: as §3
as §2, with “C. For Pmel T cells, splenocytes were first stimulated with gp100 (1 μg/ml, Anaspec) for 48 hr in the presence of the indicated concentrations of OSS and then transferred to the ELISPOT plate pre-coated with an anti-mouse IFN-γ antibody (AN-18, Mabtech, Inc.) for an additional 48 hr.” for “C.”

[8] = activated CD3+ T cells, FIG. 8K
[9] = activated T cells, Sirt6i vs. vehicle

O=C(Nc1ccc(O)c(C(=O)O)c1)c1cccc(NC(=O)c2ccco2)c1 [OSS_128167]
c-Myc expression levels (activated CD3+ T cells [1]): no effect
mRNA expression levels of glutaminase (GLS) (activated CD3+ T cells [2]; [8]): increased
mRNA expression levels of glutamine transporter (ASCT2) (activated CD3+ T cells [2]; [8]): increased
mRNA expression levels of glucose transporter (Glut1) (activated CD3+ T cells [2]; activated T cells, FIG. 8G): increased
mRNA expression levels of hexokinase (HK1) (activated CD3+ T cells [2]; activated T cells, FIG. 8G): increased
mRNA expression levels of lactate dehydrogenase A (LDHA) (activated CD3+ T cells [2]; activated T cells, FIG. 8G): increased
mRNA expression levels of phosphofructokinase P (PFKP) (activated CD3+ T cells [2]; activated T cells, FIG. 8G): increased
aerobic glycolysis (basal glycolysis, glycolytic capacity) [3]: increased
IFN-γ production [4]: increased
TIL cytotoxic activity [5]: enhanced
effect on metabolic activity (ECAR) with Sirt2 deficiency ([6]; Sirt2−/− Pmel CD8+ T cells): potentiated
metabolic activity of T cells (ECAR) [6, 9]: increases
effect on effector function (IFN-γ ELISPOT) with Sirt2 deficiency ([7]; Sirt2−/− Pmel CD8+ T cells): potentiated
effector function of T cells (IFN-γ ELISPOT) [7, 9]: increases
